# Results as given in patent publication US7235583B1, “Fatty acid-anticancer conjugates and uses thereof” (Luitpold Pharmaceuticals, Inc.,, priority 1999, dated 2007).
# What was measured:
# Format in all cases: in vivo
# [1] = tested on: human NCI-H522 lung tumor; assay: Response of human NCI-H522 lung tumor in nude mice; details: day 15 to 19 after implantation
# Method: The tumors were implanted sub-cutaneously. Tumor mass was determined by calculation from tumor length and width. The drugs were dissolved in 12.5% cremophor EL/12.5% ethanol/75% saline and delivered i.v. into the tail vein, once a day for 5 days, from day 15 to 19 after tumor implantation. […] (FIG. 3)
# [2] = Plasma and tumor concentrations of paclitaxel in mice bearing M 109 or M 5076 tumors; details: for time for which levels of paclitaxel in tumors remain stable: tumors treated with the named drug
# Method: The drug was dissolved in 10% cremophor EL/10% ethanol/80% saline. Mice were sacrificed and tumors immediately excised as a function of time after injecting the drug. Tumor tissue was homogenized and paclitaxel extracted. […] Blood was collected at the same time intervals and the amount of paclitaxel determined. […] Each data point is the mean of three measurements (n=3); the error bar is one standard deviation.
# human HCT colon tumor = assay: Cure of human HCT colon tumor in mice; details: HCT is a paclitaxel resistant tumor
# [3] = tested on: mouse lung tumor line M (Madison) 109; assay: Taxoprexin and paclitaxel against M 109 lung carcinoma in mice, treatment from day 4 (tumor about 30 mg); details: days 4 through 8, tumor about 30 mg at start
# Method: Syngeneic mice were injected with mouse lung tumor line M (Madison) 109 sub-cutaneously in the flank. […] Both drugs were dissolved in 10% cremophor EL/10% ethanol/80% saline. Tumor volume was estimated from tumor width and length. […] (FIG. 1)
# [4] = tested on: mouse lung tumor line M (Madison) 109; assay: Taxoprexin and paclitaxel against M 109 lung carcinoma in mice, treatment from day 5 (tumors 300 mg); details: tumors 300 mg at start
# Method: Syngeneic mice were injected with mouse lung tumor line M (Madison) 109 sub-cutaneously in the flank. […] Both drugs were dissolved in 10% cremophor EL/10% ethanol/80% saline. Tumor volume was estimated from tumor width and length. […] (FIG. 2)
# [5] = Dose comparisons (MTD) of taxoprexin and paclitaxel in various species; details: mice, rats and dogs
# From the text: Calculation of MTD in animals may be based on a number of physiological parameters, such as death, particular toxicities, drug induced weight loss. Using death as an endpoint, the MTD may be the dose given test animals in which each member of the test group survived. Using toxicity as an endpoint, the MTD may be the dose at which moderate but not severe toxicity is observed. Using weight loss as an endpoint, the MTD may be the dose above which a certain percent change in body weight is induced.
# [6] = paclitaxel 20 mg/kg/day x 5 days i.v. bolus from day 5
Structure (SMILES),mice with all measurable tumors eliminated ([1]; 20 mg/kg/day x 5 days i.v.),t½ in tumor ([2]; paclitaxel in the same tumor system),time for which levels of paclitaxel in tumors remain stable [2],mice cured of tumor (human HCT colon tumor),retarded tumor growth (duration) ([3]; paclitaxel 20 mg/kg/day x 5 days i.v. bolus),"LCK [4, 6]","retarded tumor growth (duration) [4, 6]",mice with all measurable tumors eliminated ([1]; 50 mg/kg/day x 5 days i.v.),"plasma concentration of paclitaxel derived from taxoprexin ([2]; after 24 hours, i.v. bolus 50 mg/kg taxoprexin)","tumor concentration of paclitaxel derived from taxoprexin ([2]; after 24 hours, i.v. bolus 50 mg/kg taxoprexin, M109 or M5076 tumors)",mice with all measurable tumors completely eliminated ([3]; taxoprexin 120 mg/kg/day x 5 days i.v. bolus),mice with all measurable tumors completely eliminated ([4]; taxoprexin 80 mg/kg/day x 5 days i.v. bolus from day 5),mice with all measurable tumors completely eliminated (C/T) ([4]; taxoprexin 120 mg/kg/day x 5 days i.v. bolus from day 5),toxicity compared with paclitaxel [5]
"CC(=O)O[C@H]1C(=O)[C@@]2(C)[C@H]([C@H](OC(=O)c3ccccc3)[C@]3(O)C[C@H](OC(=O)[C@H](O)[C@@H](NC(=O)c4ccccc4)c4ccccc4)C(C)=C1C3(C)C)[C@]1(OC(C)=O)CO[C@@H]1C[C@@H]2O [paclitaxel, reference compound]",10/10,< 8 h,less than 8 hours,0/8,about four days,1.0,about four days,,,,,,,
CC/C=C\C/C=C\C/C=C\C/C=C\C/C=C\C/C=C\CCC(=O)O[C@@H](C(=O)O[C@H]1C[C@@]2(O)[C@@H](OC(=O)c3ccccc3)[C@@H]3[C@]4(OC(C)=O)CO[C@@H]4C[C@H](O)[C@@]3(C)C(=O)[C@H](OC(C)=O)C(=C1C)C2(C)C)[C@@H](NC(=O)c1ccccc1)c1ccccc1 [taxoprexin],,,24 h,3/8,,,,10/10,70 nM,about 3 μM,eight out of eight,four out of seven,7/8,less toxic
